Laboratory results published in US10752624B2, “Kinase inhibitors” (Origenis GmbH, priority 2012, dated 2020).

The compounds below were run against LRRK2 (Homo sapiens, UniProt Q5S007) (assay: LRRK2-LRRK2 G2019S-Assay (LanthaScreen Eu Kinase Binding Assay)). Conditions: 5 nM LRRK2, 10 nM tracer 236, 2 nM EU-Anti-GST antibody, 1 h at RT; read-out: LRRK2 Activities: IC50.
Protocol: In the assay LanthaScreen™ Eu Kinase Binding Assay by Invitrogen Corporation (Carlsbad) the effect of invention of a compound on the phosphorylation is determined by measurement of fluorescence intensity emission ratio based on the binding and displacement of a proprietary, Alexa Fluor® 647-labeled, ATP-competitive kinase inhibitor scaffold (kinase tracer) to the kinase of interest. Binding of the tracer to the kinase is detected using a europium-labeled anti-tag antibody, which binds to the kinase of interest. Simultaneous binding of both the tracer and antibody to the kinase results in a high degree of FRET (fluorescence resonance energy transfer) from the europium (Eu) donor fluorophore to the Alexa Fluor® 647 acceptor fluorophore on the kinase tracer. Binding of an inhibitor to the kinase competes for binding with the tracer, resulting in a loss of FRET. The fluorescence intensity ratio is directly proportional to the amount of peptide phosphorylation.
To the wells of an 384 well small volume plate (Greiner, Frickenhausen) are added (i) the compound under test in 5% DMSO/distilled water (5 μl), (ii) 5 μl of the kinase antibody mixture resulting in a final concentration 5 nM LRRK2 or their mutants, 2 nM EU-Anti-GST antibody in 1× kinase buffer A. The reaction was started with addition of (iii) 5 μl resulting in a final concentration of 10 nM tracer 236. The assay plate was incubated at RT for 1 h and fluorescence intensity readings were collected using a TECAN M1000 at two wavelengths of λex 340/λem 615 nm and λex 340/λem 665 nm with a delay time of 100 μs and an integration time of 200 μs after 60 minutes. The emission ratio was calculated by division of the acceptor/tracer emission ([…]) by the antibody/donor emission ([…]). The inhibitor concentration was plotted versus the emission ratio to determine the IC50 using XLFit 5.0 (IDBS, Guildford) to fit to a sigmoidal dose response curve with a variable slope.

LRRK2, sequence (Q5S007 970-2527 limits assumed): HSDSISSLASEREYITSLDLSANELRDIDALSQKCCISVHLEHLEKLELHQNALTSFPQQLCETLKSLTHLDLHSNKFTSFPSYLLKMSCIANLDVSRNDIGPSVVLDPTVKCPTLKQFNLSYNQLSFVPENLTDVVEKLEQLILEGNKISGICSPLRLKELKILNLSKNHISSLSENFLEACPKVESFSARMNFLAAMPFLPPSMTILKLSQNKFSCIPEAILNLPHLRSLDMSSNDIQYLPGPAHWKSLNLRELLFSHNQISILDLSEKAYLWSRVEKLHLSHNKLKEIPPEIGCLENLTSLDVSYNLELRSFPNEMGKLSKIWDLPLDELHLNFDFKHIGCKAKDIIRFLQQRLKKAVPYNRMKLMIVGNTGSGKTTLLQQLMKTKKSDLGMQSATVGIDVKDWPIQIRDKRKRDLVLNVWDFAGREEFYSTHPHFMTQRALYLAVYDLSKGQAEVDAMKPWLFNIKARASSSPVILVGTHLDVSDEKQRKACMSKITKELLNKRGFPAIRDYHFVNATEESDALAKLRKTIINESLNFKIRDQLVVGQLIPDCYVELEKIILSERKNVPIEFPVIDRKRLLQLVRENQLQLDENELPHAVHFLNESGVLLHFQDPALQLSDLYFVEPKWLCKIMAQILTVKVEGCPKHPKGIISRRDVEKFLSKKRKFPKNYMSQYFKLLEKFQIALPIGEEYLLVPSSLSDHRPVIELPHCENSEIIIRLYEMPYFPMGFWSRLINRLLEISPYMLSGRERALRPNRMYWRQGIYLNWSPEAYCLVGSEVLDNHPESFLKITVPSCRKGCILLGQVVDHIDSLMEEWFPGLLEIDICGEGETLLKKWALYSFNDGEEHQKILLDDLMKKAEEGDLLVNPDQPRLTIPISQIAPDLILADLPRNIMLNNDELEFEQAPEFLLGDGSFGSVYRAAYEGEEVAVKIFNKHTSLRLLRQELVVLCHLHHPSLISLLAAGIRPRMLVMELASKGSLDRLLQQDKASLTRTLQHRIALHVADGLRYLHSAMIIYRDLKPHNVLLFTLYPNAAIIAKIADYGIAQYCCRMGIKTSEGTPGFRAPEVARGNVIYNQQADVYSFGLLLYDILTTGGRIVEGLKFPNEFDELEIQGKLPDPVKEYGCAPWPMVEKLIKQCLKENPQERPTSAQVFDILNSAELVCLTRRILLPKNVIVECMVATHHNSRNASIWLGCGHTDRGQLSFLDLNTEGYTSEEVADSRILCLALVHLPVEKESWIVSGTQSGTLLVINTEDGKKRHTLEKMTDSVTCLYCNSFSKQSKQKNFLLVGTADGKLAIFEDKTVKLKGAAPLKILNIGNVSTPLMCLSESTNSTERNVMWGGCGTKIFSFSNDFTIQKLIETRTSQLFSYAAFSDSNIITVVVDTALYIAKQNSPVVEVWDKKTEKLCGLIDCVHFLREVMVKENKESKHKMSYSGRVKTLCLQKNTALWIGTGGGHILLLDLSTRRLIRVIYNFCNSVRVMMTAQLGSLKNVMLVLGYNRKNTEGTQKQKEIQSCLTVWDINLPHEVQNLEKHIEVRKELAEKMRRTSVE

| Compound | IC50 [nM] |
| --- | --- |
| Fc1cc(Nc2nc3cccc(F)c3c3cn[nH]c23)ccc1N1CCOCC1 [Example 2, 9-fluoro-N-(3-fluoro-4-morpholinophenyl)-3H-pyrazolo[3,4-c]quinolin-4-amine] | 100 to 1000 |
| COc1ccc2nc(Nc3ccc(F)c(S(C)(=O)=O)c3)c3n[nH]cc3c2c1 [Example 4, N-(4-fluoro-3-(methylsulfonyl)phenyl)-8-methoxy-2H-pyrazolo[3,4-c]quinolin-4-amine] | 100 to 1000 |
| Fc1cccc2nc(Nc3ccc(N4CCOCC4)cc3)c3[nH]ncc3c12 [Example 9, 9-fluoro-N-(4-morpholinophenyl)-3H-pyrazolo[3,4-c]quinolin-4-amine] | 10 to 100 |
| Fc1cccc2nc(Nc3ccc(N4CCOCC4)nc3)c3[nH]ncc3c12 [Example 11, 9-fluoro-N-(6-morpholinopyridin-3-yl)-3H-pyrazolo[3,4-c]quinolin-4-amine] | 100 to 1000 |
| COc1cc(Nc2nc3cccc(OC)c3c3cn[nH]c23)ccc1N1CCOCC1 [Example 16, 9-methoxy-N-(3-methoxy-4-morpholinophenyl)-3H-pyrazolo[3,4-c]quinolin-4-amine] | 10 to 100 |
| COc1cccc2nc(Nc3ccc(N4CCOCC4)nc3)c3[nH]ncc3c12 [Example 17, 9-methoxy-N-(6-morpholinopyridin-3-yl)-3H-pyrazolo[3,4-c]quinolin-4-amine] | 10 to 100 |
| COc1cccc2nc(Nc3ccc4c(c3)COC4)c3[nH]ncc3c12 [Example 18, N-(1,3-dihydroisobenzofuran-5-yl)-9-methoxy-3H-pyrazolo[3,4-c]quinolin-4-amine] | 10 to 100 |
| COc1cccc2nc(Nc3ccc4c(c3)S(=O)(=O)CC4)c3[nH]ncc3c12 [Example 19, 6-((9-methoxy-3H-pyrazolo[3,4-c]quinolin-4-yl)amino)-2,3-dihydrobenzo[b]thiophene 1,1-dioxide] | 10 to 100 |
| COc1ccc2nc(Nc3cccc(CN4CCOCC4)c3)c3n[nH]cc3c2c1 [Example 23, 8-methoxy-N-(3-(morpholinomethyl)phenyl)-2H-pyrazolo[3,4-c]quinolin-4-amine] | 100 to 1000 |
| COc1ccc2nc(Nc3cccc(C(C)(C)C#N)c3)c3n[nH]cc3c2c1 [Example 24, 2-(3-((8-methoxy-2H-pyrazolo[3,4-c]quinolin-4-yl)amino)phenyl)-2-methylpropanenitrile] | 100 to 1000 |
| COc1ccc2nc(Nc3ccc(N4CCOC4=O)cc3)c3n[nH]cc3c2c1 [Example 25, 3-(4-((8-methoxy-2H-pyrazolo[3,4-c]quinolin-4-yl)amino)phenyl)oxazolidin-2-one] | 100 to 1000 |
| COc1cccc2nc(Nc3ccc(N4CCOCC4)c(F)c3)c3[nH]ncc3c12 [Example 27, N-(3-fluoro-4-morpholinophenyl)-9-methoxy-3H-pyrazolo[3,4-c]quinolin-4-amine] | 10 to 100 |
| O=C(c1ccc(Nc2nc3cccc(F)c3c3cn[nH]c23)cc1)N1CCOCC1 [Example 29, (4-((9-fluoro-3H-pyrazolo[3,4-c]quinolin-4-yl)amino)phenyl)(morpholino)methanone] | 100 to 1000 |
| COc1cc(Nc2nc3cccc(F)c3c3cn[nH]c23)ccc1N1CCOCC1 [Example 31, 9-fluoro-N-(3-methoxy-4-morpholinophenyl)-3H-pyrazolo[3,4-c]quinolin-4-amine] | 100 to 1000 |
| COc1cccc2nc(Nc3cccc(C(C)(C)C#N)c3)c3[nH]ncc3c12 [Example 33, 2-(3-((9-methoxy-3H-pyrazolo[3,4-c]quinolin-4-yl)amino)phenyl)-2-methylpropanenitrile] | 100 to 1000 |
| COc1ccc2nc(Nc3ccc(C(=O)N4CCOCC4)c(F)c3)c3n[nH]cc3c2c1 [Example 34, (2-fluoro-4-((8-methoxy-2H-pyrazolo[3,4-c]quinolin-4-yl)amino)phenyl)(morpholino)methanone] | 10 to 100 |
| COc1ccc2nc(Nc3ccc(C(=O)N4CCOCC4)c([N+](=O)[O-])c3)c3n[nH]cc3c2c1 [Example 35, (4-((8-methoxy-2H-pyrazolo[3,4-c]quinolin-4-yl)amino)-2-nitrophenyl)(morpholino)methanone] | 100 to 1000 |
| COc1ccc2nc(Nc3ccc(-c4ncco4)cc3)c3n[nH]cc3c2c1 [Example 36, 8-methoxy-N-(4-(oxazol-2-yl)phenyl)-2H-pyrazolo[3,4-c]quinolin-4-amine] | 100 to 1000 |
| COc1ccc2nc(Nc3ccc(-c4cnco4)cc3)c3n[nH]cc3c2c1 [Example 37, 8-methoxy-N-(4-(oxazol-5-yl)phenyl)-2H-pyrazolo[3,4-c]quinolin-4-amine] | < 10 |
| COc1cccc2nc(Nc3ccc(N4CCN(C(C)(C)C)CC4)cc3)c3[nH]ncc3c12 [Example 38, N-(4-(4-(tert-butyl)piperazin-1-yl)phenyl)-9-methoxy-3H-pyrazolo[3,4-c]quinolin-4-amine] | 10 to 100 |
| COc1cccc2nc(Nc3ccc(C(=O)N4CCC(N5CCN(C)CC5)CC4)cc3)c3[nH]ncc3c12 [Example 39, (4-((9-methoxy-3H-pyrazolo[3,4-c]quinolin-4-yl)amino)phenyl)(4-(4-methylpiperazin-1-yl)piperidin-1-yl)methanone] | 10 to 100 |
| COc1cccc2nc(Nc3ccc(N4CCOC4=O)cc3)c3n[nH]cc3c12 [Example 40, 3-(4-((9-methoxy-2H-pyrazolo[3,4-c]quinolin-4-yl)amino)phenyl)oxazolidin-2-one] | < 10 |
| COc1ccc(Nc2nc3ccc(SC)cc3c3cn[nH]c23)cc1OC [Example 45, N-(3,4-dimethoxyphenyl)-8-(methylthio)-3H-pyrazolo[3,4-c]quinolin-4-amine] | 100 to 1000 |
| Fc1cccc2c1nc(Nc1ccc(N3CCOCC3)cc1)c1[nH]ncc12 [Example 50, 6-fluoro-N-(4-morpholinophenyl)-3H-pyrazolo[3,4-c]quinolin-4-amine] | 100 to 1000 |

The remaining lines, values ahead:

| IC50 [nM] | Compound |
| --- | --- |
| 100 to 1000 | COc1ccc2nc(Nc3cccc(CN(C)C)c3)c3n[nH]cc3c2c1 [Example 5, N-(3-((dimethylamino)methyl)phenyl)-8-methoxy-2H-pyrazolo[3,4-c]quinolin-4-amine] |
| 100 to 1000 | COc1ccc2nc(Nc3cccc(C(=O)N4CCOCC4)c3)c3n[nH]cc3c2c1 [Example 7, (3-((8-methoxy-2H-pyrazolo[3,4-c]quinolin-4-yl)amino)phenyl)(morpholino)methanone] |
| 100 to 1000 | COc1ccc2nc(Nc3ccc4c(c3)S(=O)(=O)CC4)c3n[nH]cc3c2c1 [Example 12, 6-((8-methoxy-2H-pyrazolo[3,4-c]quinolin-4-yl)amino)-2,3-dihydrobenzo[b]thiophene 1,1-dioxide] |
| 100 to 1000 | COc1ccc2nc(Nc3ccc4c(c3)S(=O)(=O)C=C4)c3n[nH]cc3c2c1 [Example 13, 6-((8-methoxy-2H-pyrazolo[3,4-c]quinolin-4-yl)amino)benzo[b]thiophene 1,1-dioxide] |
| 10 to 100 | COc1cccc2nc(Nc3ccc(C(=O)N4CCOCC4)cc3)c3[nH]ncc3c12 [Example 14, (4-((9-methoxy-3H-pyrazolo[3,4-c]quinolin-4-yl)amino)phenyl)(morpholino)methanone] |
| 10 to 100 | COc1cccc2nc(Nc3ccc(CN4CCOCC4)cc3)c3[nH]ncc3c12 [Example 15, 9-methoxy-N-(4-(morpholinomethyl)phenyl)-3H-pyrazolo[3,4-c]quinolin-4-amine] |
| 10 to 100 | COc1cccc2nc(Nc3ccc4c(c3)S(=O)(=O)C=C4)c3[nH]ncc3c12 [Example 20, 6-((9-methoxy-3H-pyrazolo[3,4-c]quinolin-4-yl)amino)benzo[b]thiophene 1,1-dioxide] |
| 10 to 100 | COc1cccc2nc(Nc3cc(C4CC4)[nH]n3)c3n[nH]cc3c12 [Example 26, N-(5-cyclopropyl-1H-pyrazol-3-yl)-9-methoxy-3H-pyrazolo[3,4-c]quinolin-4-amine] |
| 100 to 1000 | COc1cccc2nc(Nc3cccc(CN(C)C)c3)c3[nH]ncc3c12 [Example 28, N-(3-((dimethylamino)methyl)phenyl)-9-methoxy-3H-pyrazolo[3,4-c]quinolin-4-amine] |
| 100 to 1000 | Fc1cccc2nc(Nc3ccc(CN4CCOCC4)cc3)c3[nH]ncc3c12 [Example 30, 9-fluoro-N-(4-(morpholinomethyl)phenyl)-3H-pyrazolo[3,4-c]quinolin-4-amine] |
| 10 to 100 | COc1cccc2nc(Nc3ccc(F)c(S(C)(=O)=O)c3)c3[nH]ncc3c12 [Example 32, N-(4-fluoro-3-(methylsulfonyl)phenyl)-9-methoxy-3H-pyrazolo[3,4-c]quinolin-4-amine] |
| 10 to 100 | CSc1ccc2nc(Nc3ccc(N4CCOCC4)cc3)c3[nH]ncc3c2c1 [Example 43, 8-(methylthio)-N-(4-morpholinophenyl)-3H-pyrazolo[3,4-c]quinolin-4-amine] |
| 10 to 100 | CSc1ccc2nc(Nc3cccc(S(C)(=O)=O)c3)c3[nH]ncc3c2c1 [Example 44, N-(3-(methylsulfonyl)phenyl)-8-(methylthio)-3H-pyrazolo[3,4-c]quinolin-4-amine] |
